Where two headings read alike, the source gives them in different places. *1 amine or outer side, *2 acyl side, *3 side chain or, on linkers, in order; H or OH if unused. Where a SMILES comes first, the peptide text is derived from it. Bridges are numbered along the chain shown (N, C = ends). [ ]: non-standard residue; d: D form. The star is where a group is joined. ξ: configuration not given here. Orn(4R-OH,5R-OH) = O=C([C@H](C[C@@H](O)[C@@H](O)N[*:3])N[*:1])[*:2]; hTyr(3S-OH,4S-OH) = N[C@H](C(=O)O)[C@H](O)[C@@H](O)c1ccc(O)cc1; ξOrn(4,5-diOH) = O=C(C(CC(O)C(O)N[*:3])N[*:1])[*:2]; ξhTyr(βξ-OH,γξ-OH) = NC(C(=O)O)C(O)C(O)c1ccc(O)cc1; Pro(3S-OH,4S-Me) = C[C@H]1CN[C@H](C(=O)O)[C@H]1O; Linoleoyl = CCCCC/C=C\C/C=C\CCCCCCCC(=O)*; ξPro(3ξ-OH,4ξ-Me) = CC1CNC(C(=O)O)C1O; Hyp = O=C(O)[CH]1C[CH](O)CN1; X1 = CCCCCC=CCC=CCCCCCCCC(=O)*
Legend:
dermatophytes [1] = conditions: reported by F. Benz et al., Helv. Chim. Acta 57, 2459-2477 (1974); cited from earlier work
Candida albicans [2] = assay: in vivo protection of Candida albicans-infected mice; conditions: two doses
Procedure: A measure of the protection afforded is the ED50 value [the effective dose in mg./kg. which protects 50 percent of the mice; see W. Wick et al., J. Bacteriol. 81, 233-235 (19610]. The ED50 values for antibiotic A-22082 against Candida albicans in mice were 30 mg./kg. (intraperitoneal administration) and 50 mg./kg. (subcutaneous administration).

Trichophyton rubrum = assay: disc-diffusion test, Trichophyton rubrum; assay type: cell-based; conditions: Table III; 1 isolate
Procedure: (§1) Antibiotic A-22082 is a useful antifungal agent. […] Antifungal activity was measured by the conventional disc-diffusion method (6-mm pads were dipped in solutions containing antibiotic A-22082; pads were placed on agar plates seeded with test organism). Table II summarizes the minimal inhibitory concentration (MIC) per disc at which antibiotic A-22082 inhibited representative organisms.
(§2) Antibiotic A-22082 is very active in in vitro disc-diffusion tests against dermatophytes.

[3] = tested on: Epidermatophyton floccosum; assay: disc-diffusion test, Epidermatophyton floccosum; assay type: cell-based; conditions: Table III; 1 isolate
Procedure: as §1, §2

[4] = tested on: Trichophyton schoenleinii; assay: disc-diffusion test, Trichophyton schoenleinii; assay type: cell-based; conditions: Table III; 1 isolate
Procedure: as §1, §2

Candida albicans [5] = assay: disc-diffusion antifungal test, Candida albicans; assay type: cell-based; conditions: Table II, 6-mm pads, agar plates
Procedure: as §1

Nannizzia incurvata = assay: disc-diffusion test, Nannizzia incurvata; assay type: cell-based; conditions: Table III; 1 isolate
Procedure: as §1, §2

electrometric titration = assay type: physicochemical; conditions: 66% aqueous dimethylformamide, initial pH 6.9
Trichophyton gallinae = assay: disc-diffusion test, Trichophyton gallinae; assay type: cell-based; conditions: Table III; 1 isolate
Procedure: as §1, §2

mice = assay: acute toxicity in mice; assay type: in vivo
Procedure: 3 times over 24 hours (a total of 600 mg./kg.).

Trichophyton terrestre = assay: disc-diffusion test, Trichophyton terrestre; assay type: cell-based; conditions: Table III; 1 isolate
Procedure: as §1, §2

Candida tropicalis = assay: disc-diffusion antifungal test, Candida tropicalis; assay type: cell-based; conditions: Table II, 6-mm pads, agar plates
Procedure: as §1

Trichophyton quinckeanum = assay: disc-diffusion test, Trichophyton quinckeanum; assay type: cell-based; conditions: Table III; 1 isolate
Procedure: as §1, §2

dermatophytes [6] = assay: in vitro activity against dermatophytes; assay type: cell-based; conditions: in words
Procedure: as §1, §2

Trichophyton meginini = assay: disc-diffusion test, Trichophyton meginini; assay type: cell-based; conditions: Table III; 1 isolate
Procedure: as §1, §2

Philaphere jean salemi = assay: disc-diffusion test, Philaphere jean salemi; assay type: cell-based; conditions: Table III; 1 isolate
Procedure: as §1, §2

solubility = assay type: physicochemical
Keratinomyces ajellio = assay: disc-diffusion test, Keratinomyces ajellio; assay type: cell-based; conditions: Table III; 1 isolate
Procedure: as §1, §2

[7] = tested on: Trichophyton mentagrophytes; assay: disc-diffusion antifungal test, Trichophyton mentagrophytes; assay type: cell-based; conditions: Table II, 6-mm pads, agar plates
Procedure: as §1, §2

Question: With `CCCCCC=CCC=CCCCCCCCC(=O)NC1CC(O)C(O)NC(=O)C2C(O)C(C)CN2C(=O)C(C(C)O)NC(=O)C(C(O)C(O)c2ccc(O)cc2)NC(=O)C2CC(O)CN2C(=O)C(C(C)O)NC1=O` (stereo not drawn) [Echinocandin B] (X1-[ξOrn(4,5-diOH)]T[Hyp][ξhTyr(βξ-OH,γξ-OH)]T[ξPro(3ξ-OH,4ξ-Me)]; lactam 1-C; configuration not given here) as the compound, how does the activity against dermatophytes (dermatophytes [1]) read?
Answer: inactive against dermatophytes

Question: Which results are given for `CCCCC/C=C\C/C=C\CCCCCCCC(=O)N[C@H]1C[C@@H](O)[C@@H](O)NC(=O)[C@@H]2[C@@H](O)[C@@H](C)CN2C(=O)[C@H]([C@@H](C)O)NC(=O)[C@H]([C@H](O)[C@@H](O)c2ccc(O)cc2)NC(=O)[C@@H]2C[C@@H](O)CN2C(=O)[C@H]([C@@H](C)O)NC1=O` [antibiotic A-22082] (Linoleoyl-[Orn(4R-OH,5R-OH)]T[Hyp][hTyr(3S-OH,4S-OH)]T[Pro(3S-OH,4S-Me)]; lactam 1-C)?
Answer: ED50 (effective dose which protects 50 percent of the mice) (Candida albicans [2]; intraperitoneal administration): 30 mg/kg; ED50 (effective dose which protects 50 percent of the mice) (Candida albicans [2]; subcutaneous administration): 50 mg/kg; protection against C. albicans (Candida albicans [2]; Candida albicans-infected mice): protection against C. albicans was provided; MIC (Trichophyton rubrum): < .0098 mcg/disc; MIC [3]: 1.25 mcg/disc; MIC [4]: 0.0195 mcg/disc; minimal inhibitory concentration (MIC) per disc (Candida albicans [5]): 0.625 mcg./disc; MIC (Nannizzia incurvata): 0.312 mcg/disc; pKa value (electrometric titration): 12.7; MIC (Trichophyton gallinae): > 1.25 mcg/disc; signs of acute toxicity (mice; intraperitoneal, 100 mg./kg. twice per day for three days (total 600 mg./kg.)): no signs of acute toxicity; signs of acute toxicity (mice; ip, 200 mg./kg. 3 times over 24 hours (total 600 mg./kg.)): no signs of acute toxicity; signs of acute toxicity (mice; subcutaneous, 100 mg./kg. twice per day for three days (total 600 mg./kg.)): no signs of acute toxicity; MIC (Trichophyton terrestre): 0.0195 mcg/disc; minimal inhibitory concentration (MIC) per disc (Candida tropicalis): 3.12 mcg./disc; MIC (Trichophyton quinckeanum): > 1.25 mcg/disc; activity against dermatophytes (dermatophytes [6]): very active; activity against dermatophytes (dermatophytes [6]; listed as A-22082): active against dermatophytes; MIC (Trichophyton meginini): 0.0195 mcg/disc; MIC (Philaphere jean salemi): > 1.25 mcg/disc; solubility in nonpolar organic solvents (solubility; diethyl ether, petroleum ether): insoluble; solubility in aqueous solutions (solubility; especially those having a pH greater than 7.0): soluble; solubility in organic solvents (solubility; methanol, ethanol, dimethylformamide, dimethyl sulfoxide, ethyl acetate): soluble; MIC (Keratinomyces ajellio): 0.156 mcg/disc; minimal inhibitory concentration (MIC) per disc [7]: 0.078 mcg./disc
